Experimental findings from patent US10696692B2, “Amido-benzyl sulfone and sulfoxide derivates” (Forma TM, LLC, priority 2012, dated 2020) are described below.

Like-named read-outs stand apart in the source and are kept apart here.

Assay [1] concerns A2780 cells. The assay is described as follows: Assay 2: In-Vitro Cell Proliferation Assay (A2780 cells, SRB readout, 72 hours).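 Note: viable cells counted via sulforhodamine B staining, absorbance at 570 nm, after 72 h exposure at 37 °C, DMSO 0.1% as control, media-only background subtracted.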 The format is cell-based. Conditions: A2780 cells, 72 hours, SRB, read-out: Cell Proliferation (IC50).
The target of assay [2] is NAMPT (Homo sapiens (Human), UniProt P43490). The assay is described as follows: Assay 1: Biochemical Inhibition Assay (NAMPT enzymatic reaction, NMN quantified by mass spectrometry).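 Note: recombinant His-tagged human NAMPT preincubated with compound 15 min, then reacted 30 min at rt with 1 µM NAM, 100 µM PRPP, 2.5 mM ATP, NMN product read by RapidFire MS, normalized to L-Cystathionine internal standard.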 As to conditions: read-out: Biochemical (IC50).
Chain of NAMPT (P43490 whole entry): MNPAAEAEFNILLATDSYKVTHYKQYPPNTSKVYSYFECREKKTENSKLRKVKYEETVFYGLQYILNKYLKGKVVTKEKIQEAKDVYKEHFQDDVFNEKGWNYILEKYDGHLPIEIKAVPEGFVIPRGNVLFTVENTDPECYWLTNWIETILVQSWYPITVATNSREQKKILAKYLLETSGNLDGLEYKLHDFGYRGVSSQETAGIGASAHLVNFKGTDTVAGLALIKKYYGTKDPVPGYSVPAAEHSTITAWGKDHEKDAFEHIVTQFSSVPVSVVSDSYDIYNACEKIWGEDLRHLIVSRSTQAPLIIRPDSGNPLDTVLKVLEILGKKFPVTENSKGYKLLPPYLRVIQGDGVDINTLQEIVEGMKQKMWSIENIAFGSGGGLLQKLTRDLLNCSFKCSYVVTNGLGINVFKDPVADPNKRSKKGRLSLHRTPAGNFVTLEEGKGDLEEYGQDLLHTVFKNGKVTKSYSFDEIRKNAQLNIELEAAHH

Consider `O=C(NCc1ccc(S(=O)(=O)C2CCN(C3CCOCC3)CC2)cc1)c1cnc2nccn2c1` [Example 78, Imidazo[1,2-a]pyrimidine-6-carboxylic acid 4-[1-(tetrahydro-pyran-4-yl)-piperidine-4-sulfonyl]-benzylamide], for which the IC50 stood at 47.9 nM in assay [1] and 4 nM in assay [2].

`O=C(NCc1ccc(S(=O)(=O)N2CCC(CO)CC2)cc1)c1cc2ccncc2o1` [Example 299, N-[[4-[[4-(hydroxymethyl)-1-piperidyl]sulfonyl]phenyl]methyl]furo[2,3-c]pyridine-2-carboxamide]: the IC50 in assay [1] (Homo sapiens, A2780, 72 h) amounted to 11.1 nM; in assay [2], 24.4 nM.

In the case of `O=C(NCc1ccc(S(=O)(=O)N2CCC(O)CC2)cc1)c1cc2cnccc2[nH]1` [Example 31, 1H-Pyrrolo[3,2-c]pyridine-2-carboxylic acid 4-(4-hydroxy-piperidine-1-sulfonyl)-benzylamide], the IC50 in assay [1] (Homo sapiens, A2780, 72 h) worked out at 48.2 nM; in assay [2], 55 nM.

Turning to `O=C(NCc1ccc(S(=O)(=O)N2CCC[C@@H](O)C2)cc1)c1ccc2nccn2c1` [Example 53, Imidazo[1,2-a]pyridine-6-carboxylic acid 4-((R)-3-hydroxy-piperidine-1-sulfonyl)-benzylamide], the IC50 was 22.6 nM in assay [1] (Homo sapiens, A2780, 72 h) and 16.9 nM in assay [2].

Consider `CC1(O)CCN(S(=O)(=O)c2ccc(CNC(=O)c3ccc4nccn4c3)cc2)CC1` [Example 145, Imidazo[1,2-a]pyridine-6-carboxylic acid 4-(4-hydroxy-4-methyl-piperidine-1-sulfonyl)-benzylamide], for which the IC50 in assay [1] (Homo sapiens, A2780, 72 h) was 12.5 nM; in assay [2], 28.4 nM.

For the compound “Imidazo[1,2-a]pyridine-6- carboxylic acid 4-[4- (tetrahydro-pyran-4-yl)- piperazine-1-sulfonyl]- benzylamide [Example 59]”, the figures for the IC50 in assay [1] and in assay [2] were 3 nM and 10.7 nM, respectively.

In the case of `CC(C)(C)OC(=O)N1CCC2(CCCN(S(=O)(=O)c3ccc(CNC(=O)c4ccc5nccn5c4)cc3)C2)C1` (racemic) [Example 102, 7-(4-{[(Imidazo[1,2-a]pyridine-6-carbonyl)-amino]-methyl}-benzenesulfonyl)-2,7-diaza-spiro[4.5]decane-2-carboxylic acid tert-butyl ester], the IC50 in assay [1] (Homo sapiens, A2780, 72 h) is 5.1 nM; in assay [2] it was 34.5 nM.

As for `C[C@@H]1CN(S(=O)(=O)c2ccc(CNC(=O)c3cc4ccncc4s3)cc2)C[C@H](C)N1` [Example 46, Thieno[2,3-c]pyridine-2-carboxylic acid 4-((3R,5S)-3,5-dimethyl-piperazine-1-sulfonyl)-benzylamide], the IC50 in assay [1] (Homo sapiens, A2780, 72 h) is 4.4 nM; in assay [2], 43.5 nM.

Turning to `O=C(NCc1ccc(S(=O)(=O)C2CCN(C3COC3)CC2)cc1)c1cc2ccncc2s1` [Example 252, N-[[4-[[1-(oxetan-3-yl)-4-piperidyl]sulfonyl]phenyl]methyl]thieno[2,3-c]pyridine-2-carboxamide], the IC50 is 1.48 nM in assay [1] and 4.27 nM in assay [2].

In the case of `O=C(NCc1ccc(S(=O)(=O)N2CCCC(O)C2)cc1)c1cnc2[nH]ncc2c1` (racemic) [Example 33, 1H-Pyrazolo[3,4-b]pyridine-5-carboxylic acid 4-(3-hydroxy-piperidine-1-sulfonyl)-benzylamide], the IC50 in assay [1] (Homo sapiens, A2780, 72 h) turned out to be 184 nM; in assay [2] it was 169 nM.

As for `CN(C)[C@H]1CCN(S(=O)(=O)c2ccc(CNC(=O)c3ccc4nccn4c3)cc2)C1` [Example 108, Imidazo[1,2-a]pyridine-6-carboxylic acid 4-((S)-3-dimethylamino-pyrrolidine-1-sulfonyl)-benzylamide], the IC50 was 5.3 nM in assay [1] (Homo sapiens, A2780, 72 h) and 25.6 nM in assay [2].

For the compound `O=C(NCc1ccc(S(=O)(=O)N2CCCCC2)cc1)c1ccc2nccn2n1` [Example 16, Imidazo[1,2-b]pyridazine-6-carboxylic acid 4-(piperidine-1-sulfonyl)-benzylamide], the IC50 in assay [1] (Homo sapiens, A2780, 72 h) is 163 nM; in assay [2], 22 nM.

With `O=C(NCc1ccc(S(=O)(=O)N2CCCCC2)cc1)c1ccn2nccc2c1` [Example 48, Pyrazolo[1,5-a]pyridine-5-carboxylic acid 4-(piperidine-1-sulfonyl)-benzylamide], the IC50 in assay [1] (Homo sapiens, A2780, 72 h) was 2000 nM; in assay [2] it was 46.1 nM.

As to `O=C(NCc1ccc([S+]([O-])C2CCN(C3CCOCC3)CC2)cc1)c1ccc2nccn2c1` (stereo not drawn) [Example 384, N-[[4-[(1-tetrahydropyran-4-yl-4-piperidyl)sulfinyl]phenyl]methyl]imidazo[1,2-a] pyridine-6-carboxamide], the IC50 in assay [1] (Homo sapiens, A2780, 72 h) stood at 39.1 nM; in assay [2], 36.2 nM.

For the compound `CS(=O)(=O)N1CCCC(S(=O)(=O)c2ccc(CNC(=O)c3cnc4[nH]ncc4c3)cc2)C1` (stereo not drawn) [Example 353, N-[[4-[(1-methylsulfonyl-3-piperidyl)sulfonyl)phenyl]methyl]-1H-pyrazolo[3,4-b]pyridine-5-carboxamide], the IC50 amounted to 2000 nM in assay [1] (Homo sapiens, A2780, 72 h) and 3970 nM in assay [2].

With `O=C(NCc1ccc(S(=O)(=O)C2CCN(S(=O)(=O)c3ccccc3)C2)cc1)c1cnc2[nH]ncc2c1` (stereo not drawn) [Example 346, N-[[4-[1-(benzenesulfonyl)pyrrolidin-3-yl]sulfonylphenyl]methyl]-1H-pyrazolo[3,4-b]pyridine-5-carboxamide], the IC50 in assay [1] (Homo sapiens, A2780, 72 h) was 198 nM; in assay [2], 102 nM.

Turning to `O=C(NCc1ccc(S(=O)(=O)N2CCCCC2)cc1)c1cc2ccncc2o1` [Example 5, Furo[2,3-c]pyridine-2-carboxylic acid 4-(piperidine-1-sulfonyl)-benzylamide], the IC50 in assay [1] (Homo sapiens, A2780, 72 h) was 29.2 nM; in assay [2] it was 9.4 nM.

Regarding `NC1CCN(S(=O)(=O)c2ccc(CNC(=O)c3cc4ccncc4s3)cc2)CC1` [Example 36, Thieno[2,3-c]pyridine-2-carboxylic acid 4-(4-amino-piperidine-1-sulfonyl)-benzylamide], the IC50 in assay [1] (Homo sapiens, A2780, 72 h) turned out to be 46.3 nM; in assay [2], 11.3 nM.

As to `O=C(NCc1ccc(S(=O)(=O)N2CCCCC2)cc1)c1ccn2cncc2c1` [Example 308, N-[[4-(1-piperidylsulfonyl)phenyl]methyl]imidazo[1,5-a]pyridine-7-carboxamide], the IC50 in assay [1] (Homo sapiens, A2780, 72 h) was 2000 nM; in assay [2] it was 1420 nM.

As to `O=C(NCc1ccc(S(=O)(=O)N2CCC[C@H](O)C2)cc1)c1cc2cnccc2[nH]1` [Example 52, 1H-Pyrrolo[3,2-c]pyridine-2-carboxylic acid 4-((S)-3-hydroxy-piperidine-1-sulfonyl)-benzylamide], the IC50 in assay [1] (Homo sapiens, A2780, 72 h) is 18.6 nM; in assay [2], 27.6 nM.

Consider `O=C(NCc1ccc(S(=O)(=O)N2CC3CC3C2)cc1)c1ccc2nccn2c1` (stereo not drawn) [Example 160, Imidazo[1,2-a]pyridine-6-carboxylic acid 4-(3-aza-bicyclo[3.1.0]hexane-3-sulfonyl)-benzylamide], for which the IC50 in assay [1] (Homo sapiens, A2780, 72 h) came to 15.3 nM; in assay [2] it was 4.7 nM.

For `CN1CCCC12CN(S(=O)(=O)c1ccc(CNC(=O)c3ccc4nccn4c3)cc1)C2` [Example 273, N-[[4-[(5-methyl-2,5-diazaspiro[3.4]octan-2-yl)sulfonyl)phenyl]methyl] imidazo[1,2-a]pyridine-6-carboxamide], the IC50 came to 10.4 nM in assay [1] (Homo sapiens, A2780, 72 h) and 25.4 nM in assay [2].

Regarding `O=C(NCc1ccc(S(=O)(=O)N2CCC(F)(F)CC2)cc1)c1ccc2nccn2c1` [Example 112, Imidazo[1,2-a]pyridine-6-carboxylic acid 4-(4,4-difluoro-piperidine-1-sulfonyl)-benzylamide], the IC50 in assay [1] (Homo sapiens, A2780, 72 h) stood at 20.5 nM; in assay [2] it was 25.9 nM.

Regarding `CN1CCC2CN(S(=O)(=O)c3ccc(CNC(=O)c4ccc5nccn5c4)cc3)CC21` (racemic) [Example 144, cis-Imidazo[1,2-a]pyridine-6-carboxylic acid 4-(1-methyl-hexahydro-pyrrolo[3,4-b]pyrrole-5-sulfonyl)-benzylamide], the IC50 amounted to 9.6 nM in assay [1] (Homo sapiens, A2780, 72 h) and 54 nM in assay [2].

Turning to `CC(C)(C)OC(=O)N1CCCCC12CCN(S(=O)(=O)c1ccc(CNC(=O)c3ccc4nccn4c3)cc1)C2` (stereo not drawn) [Example 243, tert-butyl 2-[4-[(imidazo[1,2-a]pyridine-6-carbonylamino)methyl]phenyl] sulfonyl-2,6-diazaspiro[4.5]decane-6-carboxylate], the IC50 was 43.3 nM in assay [1] (Homo sapiens, A2780, 72 h) and 14.9 nM in assay [2].

On to `O=C(NCc1ccc(S(=O)(=O)N2CCC3(CCCO3)C2)cc1)c1cnc2[nH]ncc2c1` (stereo not drawn) [Example 284, N-[[4-(1-oxa-7-azaspiro[4.4]nonan-7-ylsulfonyl)phenyl]methyl]-1H-pyrazolo[3,4-b]pyridine-5-carboxamide], for which the IC50 in assay [1] (Homo sapiens, A2780, 72 h) was 42.9 nM; in assay [2], 70.9 nM.

In the case of `CC(C)(C)OC(=O)N1CCC2(CC1)CCN(S(=O)(=O)c1ccc(CNC(=O)c3ccc4nccn4c3)cc1)C2` [Example 235, tert-butyl 2-[4-[(imidazo[1,2-a]pyridine-6-carbonylamino)methyl]phenyl] sulfonyl-2,8-diazaspiro[4.5]decane-8-carboxylate], the IC50 in assay [1] (Homo sapiens, A2780, 72 h) turned out to be 36.3 nM; in assay [2] it was 16.4 nM.

On to `O=C(NCc1ccc(S(=O)(=O)N2CC3CCC(C2)O3)cc1)c1cc2cnccc2[nH]1` [Example 2, 1H-Pyrrolo[3,2-c]pyridine-2-carboxylic acid 4-(8-oxa-3-aza-bicyclo[3.2.1]octane-3-sulfonyl)-benzylamide], for which the IC50 in assay [1] (Homo sapiens, A2780, 72 h) was found to be 13.8 nM; in assay [2], 28.1 nM.

`CC(C)C(=O)N1CCC(S(=O)(=O)c2ccc(CNC(=O)c3cc4ccncc4o3)cc2)CC1` [Example 313, N-[[4-[[1-(2-methylpropanoyl)-4-piperidyl]sulfonyl]phenyl]methyl]furo[2,3-c]pyridine-2-carboxamide]: the IC50 amounted to 53.8 nM in assay [1] (Homo sapiens, A2780, 72 h) and 35 nM in assay [2].

In the case of `O=C(NCc1ccc(S(=O)(=O)C2CCCOC2)cc1)c1ccc2nccn2c1` (racemic) [Example 169, Imidazo[1,2-a]pyridine-6-carboxylic acid 4-(tetrahydro-pyran-3-sulfonyl)-benzylamide], the IC50 in assay [1] (Homo sapiens, A2780, 72 h) amounted to 19.9 nM; in assay [2], 32.9 nM.
